≈ marks a conversion by molar mass, not a printed value. Like-named read-outs stand apart in the source and are kept apart here.
Key:
Aspergillus fumigatus = experiment: Antifungal MIC (RPMI-1640 microdilution); assay type: cell-based
[1] = tested on: M. tuberculosis [ATCC #27294]; experiment: MIC against M. tuberculosis in 7H9 media; assay type: cell-based; details: Mycobacterium tuberculosis
[2] = tested on: RSV, MERS coronavirus and influenza A H1N1; assay type: cell-based
[3] = Blood cell:plasma partitioning experiments; assay type: in vitro ADME, human; details: humans
[4] = Maximum tolerated dose in uninfected immunosuppressed mice; assay type: in vivo, ICR mice
Description: Tafenoquine succinate powder was supplied in the form of the commercial API used to make 100 mg ARAKODA tablets [therefore it was >99.8% pure and contain no excipients]. Four dosing solutions were prepared, and the concentrations of tafenoquine succinate were adjusted based on the mean mouse weight at the start of the study in order to achieve dosing groups of 2.5, 5, 10 and 20 mg/kg tafenoquine base respectively [note that tafenoquine succinate contains 79.6% tafenoquine base].
The dosing solutions was in the form of a tafenoquine succinate suspension in the drug vehicle. A large batch [>1 liter] of the drug vehicle [0.2% v/v Tween 80 in 1% v/v methyl cellulose in sterile water] was prepared at least 96 h before the first dose was administered and kept refrigerated [4° C.]. During preparation, the batch of drug vehicle was stirred for sufficiently long to ensure a uniform composition [4 to 24 h of stirring with a magnetic stir bar may be required].
Dosing solutions were prepared no more than 72 h prior to the first dose. Tafenoquine powder was weighed out separately for each dosing solution. After weighing, tafenoquine was transferred into an appropriately sized, transparent tube [or equivalent] containing the desired volume of drug vehicle, and gently shaken to allow development of a uniform suspension without bubble formation. The tubes containing dosing solutions were stored at [4° C.] wrapped in aluminum foil until use. Prior to use, the dosing solutions were inverted gently as required to resuspend the tafenoquine and allowed to warm temperature. Use of transparent tubes allowed for visual confirmation that an even resuspension of the drug has had been achieved prior to dosing. The above resuspension procedure was conducted the first time 48 h prior to the first day of dosing to confirm there have been no preparation issues.
Mouse Strain—Outbred male ICR mice weighing ~28 grams were used. Mice were housed 5 per cage and had access to food and water ad libitum.
Immune Status—Standard neutropenic immunosuppression regimen in the PK/dose tolerability study was used, which was also used in the in vivo efficacy model. This regimen utilizes cyclophosphamide and cortisone acetate to render animals immunosuppressed prior to aerosolized inoculation. • Cyclophosphamide (25 mg/mL) was dissolved by the addition of sterile water to the vial. This was administered as a dose of 250 mg/kg two days prior to inoculation. […]
Mouse Assessment—Throughout the studies, mice were observed multiple times per day and their overall health determined. […]

Pneumocystis [5] = details: cited from earlier work
Babesia = details: mice; cited from earlier work
Pneumocystis [6] = experiment: Pneumocystis pneumonia in rats, therapy or prophylaxis
Candida guilliermondii = experiment: Antifungal MIC (RPMI-1640 microdilution); assay type: cell-based; details: Meyerozyma guilliermondii
Sporothrix sp. = experiment: Antifungal MIC (RPMI-1640 microdilution); assay type: cell-based
Histoplasma capsulatum = experiment: microbe, parasite or virus in culture; assay type: cell-based
Enterococcus faecalis = experiment: Antibacterial MIC (broth microdilution); assay type: cell-based
Streptococcus pneumoniae = experiment: Antibacterial MIC (broth microdilution); assay type: cell-based; details: CA-MHB with 3% LHB
A. baumannii = experiment: Antibacterial MIC (broth microdilution); assay type: cell-based; details: Acinetobacter baumannii
P. aeruginosa = experiment: Antibacterial MIC (broth microdilution); assay type: cell-based; details: Pseudomonas aeruginosa
[7] = read-out: MIC 100% inhibition, isolate AF293

## COc1cc(C)c2c(Oc3cccc(C(F)(F)F)c3)c(OC)cc(NC(C)CCCN)c2n1 (stereo not drawn) [Tafenoquine, N(4)-[2,6-Dimethoxy-4-methyl-5-[3-(trifluoromethyl)phenoxy]quinolin-8-yl]pentane-1,4-diamine]
Aspergillus fumigatus; [7]
  MIC: 16 µg/mL (≈ 34.5 µM)
[1]; ATCC27294, 168 h, 7H9 with BSA, DPPC and cholesterol, 1 week, read-out: MIC
  MIC: 9.4 µg/mL (≈ 20.3 µM)
[1]; ATCC27294, 168 h, 7H9 with casitone and DPPC, 1 week, read-out: MIC
  MIC: 4.7 µg/mL (≈ 10.1 µM)
[1]; ATCC27294, 168 h, 7H9 with glucose and BSA, 1 week, read-out: MIC
  MIC: 12.5 µg/mL (≈ 27 µM)
[1]; ATCC27294, 168 h, 7H9 with glucose and casitone, 1 week, read-out: MIC
  MIC: 4.7 µg/mL (≈ 10.1 µM)
[1]; ATCC27294, 336 h, 7H9 with BSA, DPPC and cholesterol, 2 weeks, read-out: MIC
  MIC: 12.5 µg/mL (≈ 27 µM)
[1]; ATCC27294, 336 h, 7H9 with casitone and DPPC, 2 weeks, read-out: MIC
  MIC: 6.25 µg/mL (≈ 13.5 µM)
[1]; ATCC27294, 336 h, 7H9 with glucose and BSA, 2 weeks, read-out: MIC
  MIC: 19 µg/mL (≈ 41 µM)
[1]; ATCC27294, 336 h, 7H9 with glucose and casitone, 2 weeks, read-out: MIC
  MIC: 6.25 µg/mL (≈ 13.5 µM)
[1]; ATCC27294, range over Examples 19-22, read-out: MIC against replicating forms of tuberculosis in vitro
  MIC: 4.7 to 18 µg/mL (≈ 10.1 to 38.8 µM)
[2]
  antiviral activity: too cytotoxic to the cell lines used to determine whether antiviral activity was present
[3]
  ratio of the blood cell:plasma concentration: 1.4
[4]; 10 mg/kg group
  mice moribund prior to the study endpoint: 2 of 21
[4]; 20 mg/kg group
  mice moribund prior to the study endpoint: 4 of 21
[4]; 2.5 and 5.0 mg/kg oral, daily
  tolerability: well-tolerated
[4]; higher dose groups (10 and 20 mg/kg)
  mouse weights on days 7/8 versus vehicle control: these differences were not significant
Pneumocystis [5]
  Approximate EC50 of tafenoquine against Pneumocystis in vitro: ~1 µg/mL
Babesia
  dose clearing Babesia parasitemia: 20 mg/kg
Pneumocystis [6]; prophylaxis
  corresponding steady state plasma level: ~36 nanogram/ml
  effective minimum inhibitory concentration in lungs: 23 micrograms/g
Pneumocystis [6]; treatment
  corresponding steady state plasma level: approximately 125 nanogram/ml
  effective minimum inhibitory concentration in lungs: 81 micrograms/g

## COc1cc(C)c2c(Oc3cccc(C(F)(F)F)c3)c(OC)cc(NC(C)CCCN)c2n1.O=C(O)CCC(=O)O (stereo not drawn) [Tafenoquine Succinate]
Candida guilliermondii; read-out: MIC 50% inhibition, isolate Cgui1
  MIC50: 2 µg/mL
Candida guilliermondii; read-out: MIC 50% inhibition, isolate Cgui2
  MIC50: 2 µg/mL
Candida guilliermondii; read-out: MIC 50% inhibition, isolate Cgui3
  MIC50: 4 µg/mL
Candida guilliermondii; read-out: MIC 100% inhibition, isolate Cgui1
  MIC: 4 µg/mL
Candida guilliermondii; read-out: MIC 100% inhibition, isolate Cgui2
  MIC: 2 µg/mL
Candida guilliermondii; read-out: MIC 100% inhibition, isolate Cgui3
  MIC: 4 µg/mL
Sporothrix sp.; read-out: MIC 50% inhibition, isolate Sporo1
  MIC50: 2 µg/mL
Sporothrix sp.; read-out: MIC 50% inhibition, isolate Sporo2
  MIC50: 1 µg/mL
Sporothrix sp.; read-out: MIC 50% inhibition, isolate Sporo3
  MIC50: 2 µg/mL
Sporothrix sp.; read-out: MIC 100% inhibition, isolate Sporo1
  MIC: 4 µg/mL
Sporothrix sp.; read-out: MIC 100% inhibition, isolate Sporo2
  MIC: 2 µg/mL
Sporothrix sp.; read-out: MIC 100% inhibition, isolate Sporo3
  MIC: 4 µg/mL
Aspergillus fumigatus; read-out: MIC 50% inhibition, isolate AF293
  MIC50: 8 µg/mL
Aspergillus fumigatus; read-out: MIC 50% inhibition, isolate D115-106
  MIC50: 4 µg/mL
Aspergillus fumigatus; read-out: MIC 50% inhibition, isolate D115-116
  MIC50: 4 µg/mL
Aspergillus fumigatus; [7]
  MIC: 16 µg/mL
Aspergillus fumigatus; read-out: MIC 100% inhibition, isolate D115-106
  MIC: 8 µg/mL
Aspergillus fumigatus; read-out: MIC 100% inhibition, isolate D115-116
  MIC: 4 µg/mL
Histoplasma capsulatum; read-out: MIC 50% inhibition, isolate HC1
  MIC50: 4 µg/mL
Histoplasma capsulatum; read-out: MIC 50% inhibition, isolate HC2
  MIC50: 2 µg/mL
Histoplasma capsulatum; read-out: MIC 50% inhibition, isolate HC3
  MIC50: 8 µg/mL
Histoplasma capsulatum; read-out: MIC 100% inhibition, isolate HC1
  MIC: 4 µg/mL
Histoplasma capsulatum; read-out: MIC 100% inhibition, isolate HC2
  MIC: 4 µg/mL
Histoplasma capsulatum; read-out: MIC 100% inhibition, isolate HC3
  MIC: 8 µg/mL
Enterococcus faecalis; ATCC29212, isolate ATCC 29212
  MIC: 8 µg/mL
Enterococcus faecalis; isolate 1768
  MIC: 8 µg/mL
Streptococcus pneumoniae; Streptococcus pneumoniae, ATCC49619, isolate ATCC 49619, read-out: MIC
  MIC: 16 µg/mL
Streptococcus pneumoniae; Streptococcus pneumoniae, isolate MD77773, read-out: MIC
  MIC: 16 µg/mL
Streptococcus pneumoniae; isolate CO314937
  MIC: 16 µg/mL
A. baumannii; ATCC17978, isolate ATCC 17978
  MIC: 64 µg/mL
A. baumannii; isolate AR-88
  MIC: 64 µg/mL
A. baumannii; isolate AR-273
  MIC: > 64 µg/mL
P. aeruginosa; ATCC27853, isolate ATCC 27853
  MIC: > 64 µg/mL
P. aeruginosa; isolate AR-230
  MIC: > 64 µg/mL
P. aeruginosa; isolate J4242
  MIC: > 64 µg/mL

Reference: patent publication US12691107B2, “Methods for the treatment and prevention of lung infections caused by gram-positive bacteria, fungus, or virus by administration of tafenoquine” (priority 2020, dated 2026)
